# Source: patent US8685928B2, “Antagonists of MUC1” (Dana-Farber Cancer Institute, Inc., priority 2010, dated 2014)
# “Also recorded” adds a separate entry of the source. Positions of bridges follow the written chain, without caps; N, C: chain ends. Non-standard residues stand in square brackets, D forms with d. Residues, ends and D or L forms follow the SMILES beside them.
# Experiments:
# MUC1-CD = target: T1, MUC1-CD (Homo sapiens, UniProt P15941); assay: MUC1-CD oligomerization in HEK 293T cells transfected with GFP- and Flag-tag MUC1-CD; type: cell-based; conditions: HEK 293T cells transfected with human MUC1-CD
# T1 construct: Mucin 1 (MUC1) oncoprotein cytoplasmic domain (MUC1-CD); expressed in transfected cells; host or cells: HEK 293T
# T1 sequence (P15941 1182-1255 limits assumed): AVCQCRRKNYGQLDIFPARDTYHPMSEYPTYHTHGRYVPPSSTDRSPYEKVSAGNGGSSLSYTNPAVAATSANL
# Source text: This finding is not surprising based on a requirement for the cysteine residues in the GO-203-2 binding domain (CQCRRKN) to be available for binding with cysteine residues on the corresponding binding domain of the MUC1-CD protein.
# [1] = test system: PC3 prostate carcinoma xenograft; assay: PC3 human prostate carcinoma xenograft model; type: in vivo, mouse; conditions: 7.5 mg/kg
# Method: (§1) Male BALB/c nu/nu mice (6-7 weeks old; Charles River Laboratories, Wilmington, Mass.) were injected with 5 million A549 or PC3 cells in the right thigh. When tumors reached a predetermined size (approximately 80-100 mm^3; 10-16 days after tumor cell implantation), treatment was initiated as follows: Group 1, saline control (daily×21 days); Group 2, GO-203-2c (7.5 mg/kg, 5 days on/2 days off×3 cycles); Group 3, GO-203-2c (7.5 mg/kg, daily×21 days). In the A549 study, Group 3 animals that still had palpable/measurable tumors at the end of the 21-day treatment period were administered an additional 9 days of GO-203-2c treatment (Group 3′), with a one week interim period between treatments.
# [2] = target: nicotinic acetylcholine α1 (bungarotoxin) receptor (Homo sapiens, UniProt P02708+P07510+Q07001); assay: biochemical
# Sequence of nicotinic acetylcholine α1 (bungarotoxin) receptor (P07510 23-517): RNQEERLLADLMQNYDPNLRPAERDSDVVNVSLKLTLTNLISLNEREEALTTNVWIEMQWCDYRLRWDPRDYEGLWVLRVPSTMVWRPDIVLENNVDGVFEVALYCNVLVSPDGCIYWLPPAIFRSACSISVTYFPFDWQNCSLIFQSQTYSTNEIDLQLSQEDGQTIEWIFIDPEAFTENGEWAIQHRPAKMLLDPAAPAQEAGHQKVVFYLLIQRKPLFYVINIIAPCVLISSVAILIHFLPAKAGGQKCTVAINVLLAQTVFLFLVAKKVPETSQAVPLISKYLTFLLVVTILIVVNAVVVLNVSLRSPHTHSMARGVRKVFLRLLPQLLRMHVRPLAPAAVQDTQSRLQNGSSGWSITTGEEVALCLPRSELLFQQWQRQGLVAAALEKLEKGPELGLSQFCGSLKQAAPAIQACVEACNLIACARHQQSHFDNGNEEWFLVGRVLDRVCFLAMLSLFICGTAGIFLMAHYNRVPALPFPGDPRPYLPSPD
# Sequence of nicotinic acetylcholine α1 (bungarotoxin) receptor (P02708 21-457): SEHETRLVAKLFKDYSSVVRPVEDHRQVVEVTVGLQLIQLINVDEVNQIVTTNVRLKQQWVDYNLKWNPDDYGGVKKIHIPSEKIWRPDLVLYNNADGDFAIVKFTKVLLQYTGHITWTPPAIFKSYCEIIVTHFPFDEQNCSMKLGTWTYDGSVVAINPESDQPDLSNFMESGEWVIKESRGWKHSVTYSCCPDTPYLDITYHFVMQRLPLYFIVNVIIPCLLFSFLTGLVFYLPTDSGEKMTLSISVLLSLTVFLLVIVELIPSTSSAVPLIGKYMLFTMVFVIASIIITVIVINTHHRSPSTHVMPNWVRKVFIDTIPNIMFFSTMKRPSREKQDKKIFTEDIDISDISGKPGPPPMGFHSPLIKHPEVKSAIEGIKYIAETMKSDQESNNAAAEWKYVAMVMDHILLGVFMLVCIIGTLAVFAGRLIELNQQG
# Sequence of nicotinic acetylcholine α1 (bungarotoxin) receptor (Q07001 22-517): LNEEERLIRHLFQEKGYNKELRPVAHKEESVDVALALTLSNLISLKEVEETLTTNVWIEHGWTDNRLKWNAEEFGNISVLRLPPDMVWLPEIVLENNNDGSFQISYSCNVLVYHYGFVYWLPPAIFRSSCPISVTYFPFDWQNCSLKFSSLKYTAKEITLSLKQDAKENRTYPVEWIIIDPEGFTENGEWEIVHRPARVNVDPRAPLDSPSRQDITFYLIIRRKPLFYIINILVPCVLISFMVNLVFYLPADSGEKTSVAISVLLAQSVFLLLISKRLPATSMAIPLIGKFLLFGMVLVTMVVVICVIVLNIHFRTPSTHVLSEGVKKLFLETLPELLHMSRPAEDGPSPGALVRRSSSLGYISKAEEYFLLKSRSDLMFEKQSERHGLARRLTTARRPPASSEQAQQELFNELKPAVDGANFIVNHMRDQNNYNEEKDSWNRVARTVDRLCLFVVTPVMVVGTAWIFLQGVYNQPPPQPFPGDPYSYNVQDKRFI
# Sequence of nicotinic acetylcholine α1 (bungarotoxin) receptor (P11230 24-501, further chain): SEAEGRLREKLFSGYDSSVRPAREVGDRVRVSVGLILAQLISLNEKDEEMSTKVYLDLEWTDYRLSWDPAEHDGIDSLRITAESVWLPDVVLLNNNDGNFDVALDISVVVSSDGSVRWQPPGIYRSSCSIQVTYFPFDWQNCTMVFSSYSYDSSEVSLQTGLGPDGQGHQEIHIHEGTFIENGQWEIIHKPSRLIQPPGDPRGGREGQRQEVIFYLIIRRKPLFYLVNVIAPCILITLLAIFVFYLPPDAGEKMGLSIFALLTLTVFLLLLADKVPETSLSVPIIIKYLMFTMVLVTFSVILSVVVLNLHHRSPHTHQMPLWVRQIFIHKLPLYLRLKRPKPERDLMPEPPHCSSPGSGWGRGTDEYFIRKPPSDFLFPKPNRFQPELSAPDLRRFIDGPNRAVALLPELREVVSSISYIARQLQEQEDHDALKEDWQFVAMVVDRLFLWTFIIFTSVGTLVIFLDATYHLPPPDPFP
# [3] = Pivotal repeat-dose rat toxicity study; type: in vivo; conditions: for Safety margin: human starting dose lower than NOAEL: 3 mg/m^2 human starting dose
# Method: The proposed clinical trial will be a multicenter, open-label, dose-escalation, safety, pharmacodynamic and pharmacokinetic study in patients with advanced solid tumors administered GO-203-2c IV over 60 min once per day for 21 consecutive days; this dosing regimen will be repeated every 28 days. Since the majority of the treatment-related findings in rats and dogs were localized at the infusion site or were secondary to the infusion site reactions, the no-observed-adverse-effect-level (NOAEL) for systemic toxicity in the pivotal repeat-dose rat toxicity study was determined to be 5 mg/kg/day. The highest non-severely toxic dose (HNSTD), which was also considered the NOAEL, was established as 1 mg/kg/day in the dog pivotal repeat-dose toxicity study. For vascular injury at the injection site, the NOAEL in rats is […]. This concentration rate is 25-fold greater than the estimated concentration rate for humans (0.83 μg/mL/min) at the recommended starting dose of 3 mg/m2/day (assumes a body mass of 1.65 m2).
# [4] = test system: A549 non-small cell lung carcinoma xenograft; assay: A549 non-small cell lung carcinoma xenograft model; type: in vivo, mouse; conditions: for Tumor response: 7.5 mg/kg
# Method: as §1
# Hygroscopicity = type: physicochemical; conditions: drug substance powder
# Source text: There is no evidence to support an isolable hydrate. GO-203-2c HCl is hygroscopic, and precautions must be taken to avoid moisture uptake while handling the drug substance powder.
# [5] = test system: ZR-75-1 human breast carcinoma xenograft; assay: ZR-75-1 xenograft model, 5 days on/2 days off IV dosing schedule; type: in vivo, mouse; conditions: for Mice completely cured / Tumor response: 7.5 mg/kg IV
# Method: In a second study using this ZR-75-1 cell xenograft model, a 5 days on/2 days off IV dosing schedule was used, and groups of 8 mice received either one, two or three cycles utilizing this schedule. […] Tumor growth was cytostatic for 4-5 days after stopping the drug treatment, but tumors subsequently started re-growing similarly to control. […] Tumors in the remaining 5 of 8 mice in this group started re-growing at 8+ days after cessation of treatment. These animals were administered an additional 2 cycles of treatment, starting on Day 29.
# [6] = test system: human carcinoma cell lines
# Method: A series of in vitro and in vivo primary pharmacodynamic studies was conducted to assess efficacy and mechanism of action of GO-203-2c in human tumor cells.
# GO-203-2 and GO-203-2c were evaluated for ability to inhibit proliferation of murine and human carcinoma cell lines in vitro. Test compound (5 μM final concentration) was added to tumor cell cultures daily for 5 to 6 days, and cell viability was determined by trypan blue dye exclusion.
# H1975 Lung cancer cells = assay: Inhibition of cell proliferation, trypan blue exclusion (Table 2); type: cell-based, human; conditions: 5 μM peptide every day, 6-day treatment
# Method: Cells (ZR-75-1 breast carcinoma or H-1975 non-small cell lung carcinoma) were plated separately in 24-well plates for 24 hours prior to treatment with different peptides. The cells were then treated with 5 μM (final concentration) of different peptides every day for 4-6 days. On the day of termination, cells were washed two times with PBS and trypsinized with 0.3 ml of Trypsin/EDTA. Cell growth media was used to stop the trypsin reaction. Following washing, the cells were centrifuged and the cell pellets were re-suspended in PBS for counting in hemacytometer.
# The trypan blue dye exclusion method was used to determine the number of viable cells present in a cell suspension. Cell suspension was mixed as 1:1 with the trypan blue dye and then visually examined in a hemacytometer. A viable cell will have a clear cytoplasm whereas a non-viable/dead cell will be stained with trypan blue dye. By doing this trypan blue exclusion method, viable cell numbers were counted and percent inhibition of proliferation was then calculated comparing with untreated controls.
# [7] = target: norepinephrine transporter (Homo sapiens, UniProt P23975); assay: biochemical
# Sequence of norepinephrine transporter (P23975 whole entry, species assumed): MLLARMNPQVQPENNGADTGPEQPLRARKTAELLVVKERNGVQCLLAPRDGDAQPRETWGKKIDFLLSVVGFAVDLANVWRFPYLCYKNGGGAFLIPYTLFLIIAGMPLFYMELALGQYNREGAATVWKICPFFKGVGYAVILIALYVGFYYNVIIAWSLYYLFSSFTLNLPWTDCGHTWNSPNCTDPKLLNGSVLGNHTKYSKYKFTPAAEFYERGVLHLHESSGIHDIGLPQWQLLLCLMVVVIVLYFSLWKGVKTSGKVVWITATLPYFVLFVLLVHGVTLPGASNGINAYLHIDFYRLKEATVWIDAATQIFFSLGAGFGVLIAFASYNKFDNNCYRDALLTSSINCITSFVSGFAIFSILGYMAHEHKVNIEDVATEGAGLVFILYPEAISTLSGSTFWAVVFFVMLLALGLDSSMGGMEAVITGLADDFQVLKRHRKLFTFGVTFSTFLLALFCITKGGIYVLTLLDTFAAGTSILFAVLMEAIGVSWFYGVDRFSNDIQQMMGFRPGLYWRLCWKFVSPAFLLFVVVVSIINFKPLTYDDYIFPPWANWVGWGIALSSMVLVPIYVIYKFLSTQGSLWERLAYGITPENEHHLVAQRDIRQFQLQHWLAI
# adrenergic α1A receptor = adrenergic α1A receptor (Homo sapiens, UniProt P35348); assay: biochemical
# Sequence of adrenergic α1A receptor (P35348 whole entry): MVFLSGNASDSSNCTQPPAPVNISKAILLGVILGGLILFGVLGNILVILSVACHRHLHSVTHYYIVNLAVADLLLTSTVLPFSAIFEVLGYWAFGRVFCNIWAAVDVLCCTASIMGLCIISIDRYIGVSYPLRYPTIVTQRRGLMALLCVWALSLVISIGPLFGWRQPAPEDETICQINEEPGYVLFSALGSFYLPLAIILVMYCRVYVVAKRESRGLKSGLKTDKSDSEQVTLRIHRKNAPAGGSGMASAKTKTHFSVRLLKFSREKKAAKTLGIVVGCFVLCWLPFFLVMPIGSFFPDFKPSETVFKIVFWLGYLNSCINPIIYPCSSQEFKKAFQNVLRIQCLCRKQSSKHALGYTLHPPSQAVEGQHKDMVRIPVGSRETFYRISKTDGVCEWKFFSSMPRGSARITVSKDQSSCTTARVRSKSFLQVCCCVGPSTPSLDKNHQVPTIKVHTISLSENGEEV
# [8] = test system: MiaPaCa pancreatic carcinoma xenograft; assay: MiaPaCa human pancreatic carcinoma xenograft model, GO-203-2c IV; type: in vivo, mouse
# Method: Male BALB/c nu/nu mice (8 weeks old; Charles River Laboratories, Wilmington, Mass.) were injected with 2.5 million MiaPaCa cells in the right thigh. When tumors reached a predetermined size (approximately 100 mm^3; 34 days after tumor cell implantation), mice (8 per group) were administered normal saline (control) or GO-203-2c (10 mg/kg) IV daily for 21 consecutive days. At the end of the treatment period, and following a one week interim period, animals that received GO-203-2c initially were administered an additional series of GO-203-2c daily injections.
# [9] = 5 days on/2 days off x 3 cycles
# [10] = 10 mg/kg IV daily for 21 consecutive days
smiles,measurement,setting,value
"CC(=O)N[C@H](CCCNC(=N)N)C(=O)N[C@H](CCCNC(=N)N)C(=O)N[C@H](CCCNC(=N)N)C(=O)N[C@H](CCCNC(=N)N)C(=O)N[C@H](CCCNC(=N)N)C(=O)N[C@H](CCCNC(=N)N)C(=O)N[C@H](CCCNC(=N)N)C(=O)N[C@H](CCCNC(=N)N)C(=O)N[C@H](CCCNC(=N)N)C(=O)N[C@@H]1CSSC[C@H](C(=O)N[C@H](CCCNC(=N)N)C(=O)N[C@H](CCCNC(=N)N)C(=O)N[C@H](CCCCN)C(=O)N[C@H](CC(N)=O)C(N)=O)NC(=O)[C@@H](CCC(N)=O)NC1=O [GO-203-2c, Ac-(D)Arg-(D)Arg-(D)Arg-(D)Arg-(D)Arg-(D)Arg-(D)Arg-(D)Arg-(D)Arg-(D)Cys-(D)Gln-(D)Cys-(D)Arg-(D)Arg-(D)Lys-(D)Asn-NH2 disulfide] (Ac-[dR][dR][dR][dR][dR][dR][dR][dR][dR][dC][dQ][dC][dR][dR][dK][dN]-NH2; disulfide 10-12)",Inhibition of MUC1-CD oligomerization,MUC1-CD,inhibition
same,Tumor response,[1]; [9],complete growth arrest and regression; also recorded: tumor growth was immediately arrested and tumors regressed
same,Tumor response,[1]; daily x 21 days,complete growth arrest and regression; also recorded: tumor growth was immediately arrested and tumors regressed
same,IC50,[2],3 to 8 µM
same,Rat injection-site NOAEL concentration rate relative to estimated human concentration rate (0.83 μg/mL/min),[3]; human starting dose of 3 mg/m2/day,25 fold
same,NOAEL,"[3]; in vivo, rat, repeat-dose IV, read-out: NOAEL for systemic toxicity",5 mg/kg/day
same,NOAEL (systemic),"[3]; rat, body surface area basis",30 mg/m2/day
same,Safety margin: human starting dose lower than NOAEL,"[3]; rat, mg/kg basis",62 fold
same,Safety margin: human starting dose lower than NOAEL,"[3]; rat, mg/m^2 basis",10 fold
same,NOAEL for vascular injury at the injection site (concentration rate),[3]; rats,20.8 µg/mL/min
same,Tumor response,[4]; [9],"tumor growth arrest during the treatment period, but the tumors resumed growth; also recorded: started growing steadily after day 9"
same,Tumor response,[4]; daily x 21 days,slowed down tumor growth substantially
same,Tumor response after re-dosing,[4]; additional 9 days of treatment from day 29,somewhat stabilized with a very slow growth
same,Average tumor size on day 29,"[4]; daily x 21 days group after 7 days of rest, at start of re-dosing",~900 mm^3
same,Hygroscopicity,Hygroscopicity,hygroscopic
same,Mice completely cured,[5]; 2 dosing cycles,Two of 8
same,Tumor response,[5]; 2 dosing cycles (5 days on/2 days off),Tumor regression
same,Mice completely cured,[5]; 3 dosing cycles,Three of 8
same,Tumor response,[5]; 3 dosing cycles (5 days on/2 days off),"tumor growth arrest during the treatment period, but the tumors resumed growth; also recorded: substantial regression of tumors"
same,Tumor response,[5]; one dosing cycle (5 days on/2 days off),partial tumor regression
same,Tumor response after re-dosing,[5]; additional 2 cycles from Day 29 in 5 mice with re-growing tumors,somewhat stabilized with very slow growth
same,50% inhibition (IC50) of proliferation,[6],5 to 11 µg/mL
same,IC50,[6],2 to 5 µM
same,Avg (viable cell number of Groups 1-3),H1975 Lung cancer cells,7.2
same,% inhibition,H1975 Lung cancer cells; vs untreated control,60.7%
same,"Group-1 (viable cell number, individual well)","H1975 Lung cancer cells; well having 10,000 cells",8.47
same,"Group-2 (viable cell number, individual well)","H1975 Lung cancer cells; well having 10,000 cells",7.13
same,"Group-3 (viable cell number, individual well)","H1975 Lung cancer cells; well having 10,000 cells",6.02
same,IC50,[7],3 to 8 µM
same,IC50,adrenergic α1A receptor,3 to 8 µM
same,Mice tumor-free,[8]; [10],2 of 8 and Two out of 8
same,Tumor response,[8]; [10],significant arrest of tumor growth; also recorded: tumor growth delay
same,Tumor response after re-dosing,[8]; another cycle of daily IV 10 mg/kg from day 29,"somewhat stabilized, with a very slow growth"
same,Average tumor size on day 29,"[8]; six remaining mice after 7-day rest period, at start of re-dosing",~400 mm^3
